Test [1] addresses T1, Adrenergic receptor alpha-2 (Rattus norvegicus, UniProt P22086+P19328+P22909).
T1 sequence (P22086 whole entry): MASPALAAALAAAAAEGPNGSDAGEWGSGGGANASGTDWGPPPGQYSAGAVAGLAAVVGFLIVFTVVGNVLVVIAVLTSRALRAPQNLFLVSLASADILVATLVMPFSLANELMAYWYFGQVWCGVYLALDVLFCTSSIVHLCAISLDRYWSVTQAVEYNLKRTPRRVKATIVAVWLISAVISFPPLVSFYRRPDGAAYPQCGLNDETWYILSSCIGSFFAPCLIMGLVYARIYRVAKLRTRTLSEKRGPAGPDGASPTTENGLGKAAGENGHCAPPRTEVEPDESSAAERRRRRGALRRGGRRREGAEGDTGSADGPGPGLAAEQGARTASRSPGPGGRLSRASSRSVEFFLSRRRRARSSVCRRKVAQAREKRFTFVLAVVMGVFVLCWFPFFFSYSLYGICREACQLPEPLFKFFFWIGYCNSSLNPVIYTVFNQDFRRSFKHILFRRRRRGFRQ
T1 sequence (P19328 whole entry): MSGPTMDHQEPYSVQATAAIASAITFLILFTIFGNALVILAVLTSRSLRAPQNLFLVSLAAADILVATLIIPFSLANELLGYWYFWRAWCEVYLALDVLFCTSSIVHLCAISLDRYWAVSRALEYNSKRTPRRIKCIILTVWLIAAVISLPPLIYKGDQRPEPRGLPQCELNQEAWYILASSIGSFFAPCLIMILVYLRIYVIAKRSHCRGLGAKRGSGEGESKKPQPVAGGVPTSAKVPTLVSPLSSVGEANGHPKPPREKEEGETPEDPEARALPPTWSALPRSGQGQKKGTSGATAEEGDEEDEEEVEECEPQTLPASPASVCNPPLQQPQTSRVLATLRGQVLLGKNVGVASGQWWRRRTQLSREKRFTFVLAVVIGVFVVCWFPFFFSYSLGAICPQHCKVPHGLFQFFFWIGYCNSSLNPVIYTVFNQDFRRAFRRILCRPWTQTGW
T1 sequence (P22909 whole entry): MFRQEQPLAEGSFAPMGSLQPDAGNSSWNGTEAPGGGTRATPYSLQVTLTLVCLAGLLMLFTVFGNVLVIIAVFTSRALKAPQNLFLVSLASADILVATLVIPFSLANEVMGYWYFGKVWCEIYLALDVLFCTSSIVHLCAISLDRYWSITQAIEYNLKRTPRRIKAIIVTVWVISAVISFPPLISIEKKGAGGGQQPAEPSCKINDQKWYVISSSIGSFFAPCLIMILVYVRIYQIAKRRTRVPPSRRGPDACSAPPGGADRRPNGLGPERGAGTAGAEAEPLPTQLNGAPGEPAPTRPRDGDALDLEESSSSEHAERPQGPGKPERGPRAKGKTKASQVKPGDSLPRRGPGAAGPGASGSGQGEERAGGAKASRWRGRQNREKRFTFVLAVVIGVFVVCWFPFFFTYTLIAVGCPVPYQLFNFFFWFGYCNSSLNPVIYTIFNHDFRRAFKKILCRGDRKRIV
In words: Compound was tested for inhibition of [3H]yohimbine against Alpha-2 adrenergic receptor from rat cortical membranes using in vitro adrenergic receptor binding assay. The test is classed as cell membranes, Membrane.

The species named for a further test is Rattus norvegicus. In words: Compound was tested for inhibition of [3H]5-HT against rat whole brain using in vitro biogenic amine uptake assay using rat brain synaptosomes. The test is classed as functional.
Test [2] concerns the target T1, Adrenergic receptor alpha-2. In words: Compound was tested for inhibition of [3H]clonidine against Alpha-2 adrenergic receptor from rat cortical membranes using in vitro adrenergic receptor binding assay. The format is cell membranes, Membrane.
The target of test [3] is T2, Adrenergic receptor alpha-1 (Rattus norvegicus, UniProt P15823+P23944+P43140).
T2 sequence (P15823 whole entry): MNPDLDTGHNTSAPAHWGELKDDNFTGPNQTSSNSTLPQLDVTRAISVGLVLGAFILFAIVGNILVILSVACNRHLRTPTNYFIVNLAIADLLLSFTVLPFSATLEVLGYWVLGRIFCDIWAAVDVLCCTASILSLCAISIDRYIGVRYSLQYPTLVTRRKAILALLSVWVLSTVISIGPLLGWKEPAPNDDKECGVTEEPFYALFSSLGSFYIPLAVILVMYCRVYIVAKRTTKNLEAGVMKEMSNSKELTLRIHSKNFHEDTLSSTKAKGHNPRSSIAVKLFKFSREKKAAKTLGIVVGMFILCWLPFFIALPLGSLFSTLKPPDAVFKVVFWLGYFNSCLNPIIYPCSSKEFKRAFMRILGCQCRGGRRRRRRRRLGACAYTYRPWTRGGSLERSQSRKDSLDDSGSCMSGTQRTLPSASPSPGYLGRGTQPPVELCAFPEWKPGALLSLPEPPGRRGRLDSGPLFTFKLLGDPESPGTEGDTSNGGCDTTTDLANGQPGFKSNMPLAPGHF
T2 sequence (P23944 whole entry): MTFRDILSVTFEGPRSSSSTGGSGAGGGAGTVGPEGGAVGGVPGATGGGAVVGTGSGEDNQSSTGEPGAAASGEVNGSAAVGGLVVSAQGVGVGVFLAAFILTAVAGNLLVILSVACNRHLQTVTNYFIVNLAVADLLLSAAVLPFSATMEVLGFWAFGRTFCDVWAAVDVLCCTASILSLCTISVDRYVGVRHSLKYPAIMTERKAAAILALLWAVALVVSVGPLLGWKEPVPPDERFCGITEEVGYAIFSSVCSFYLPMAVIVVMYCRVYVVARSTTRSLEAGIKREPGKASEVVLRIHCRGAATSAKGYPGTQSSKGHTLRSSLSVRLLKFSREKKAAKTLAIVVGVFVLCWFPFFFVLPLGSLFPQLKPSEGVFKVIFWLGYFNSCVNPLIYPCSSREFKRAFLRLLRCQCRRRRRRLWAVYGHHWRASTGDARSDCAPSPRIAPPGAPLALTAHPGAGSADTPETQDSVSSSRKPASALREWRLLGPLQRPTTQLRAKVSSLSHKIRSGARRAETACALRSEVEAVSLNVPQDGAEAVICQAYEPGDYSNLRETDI
T2 sequence (P43140 whole entry): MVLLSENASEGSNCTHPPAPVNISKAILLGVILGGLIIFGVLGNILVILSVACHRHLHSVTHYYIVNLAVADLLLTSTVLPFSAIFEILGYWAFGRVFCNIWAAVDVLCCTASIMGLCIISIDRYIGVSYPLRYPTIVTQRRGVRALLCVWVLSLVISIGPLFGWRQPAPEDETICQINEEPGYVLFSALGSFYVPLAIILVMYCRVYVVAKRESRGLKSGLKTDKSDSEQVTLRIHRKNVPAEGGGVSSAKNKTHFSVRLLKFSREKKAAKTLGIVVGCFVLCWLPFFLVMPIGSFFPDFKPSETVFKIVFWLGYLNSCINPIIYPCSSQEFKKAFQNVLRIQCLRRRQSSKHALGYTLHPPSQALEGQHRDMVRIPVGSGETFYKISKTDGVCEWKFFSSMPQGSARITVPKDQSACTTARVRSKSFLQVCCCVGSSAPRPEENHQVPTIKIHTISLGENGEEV
Description: Compound was tested for inhibition of [3H]WB-4101 against Alpha-1 adrenergic receptor from rat whole brain membranes using in vitro adrenergic receptor binding assay. The test is classed as cell membranes, Membrane.

Structures are written as SMILES.

Take `C=Cc1cccn1N(C)c1ccncc1`: the IC50 (usually the concentration at which inhibition is half-maximal) is 0.95 µM in test [1], more than 20 µM in the test listed under Rattus norvegicus, 0.21 µM in test [2] and 5.9 µM in test [3].
